Earlier results in US20080045610A1, “Methods for regulating neurotransmitter systems by inducing counteradaptations” (priority 2004, published 2008).

Experiments:
[1] = system: opiate receptor; details: compared with native morphine compound
[2] = parent compound itself
[3] = in vivo

Structure (SMILES): CN1CC[C@]23c4c5ccc(O)c4O[C@H]2CC=C[C@H]3[C@H]1C5 [6-desoxymorphine]
- activity relative to native morphine [1]: 10 times

Structure (SMILES): CC(=O)Oc1ccc2c3c1O[C@H]1[C@@H](OC(C)=O)C=C[C@H]4[C@@H](C2)N(C)CC[C@@]341 [diacetylmorphine]
- oral bioavailability: ~67%

Structure (SMILES): C=C1CC[C@@]2(O)[C@H]3Cc4ccc(O)c5c4[C@@]2(CCN3CC2CC2)[C@H]1O5 [nalmefene]
- half-life [2]: 8 h
- liver toxicity [3]: no dose dependent liver toxicity
